Source: patent US12384797B2, “Thioeno[3,2-b] pyridin-7-amine compounds for treating familial dysautonomia” (PTC THERAPEUTICS, INC., priority 2019, dated 2025)

System: Elongator complex protein 1 (ELP1, also referred to as IKBKAP)
Experiment: IKBKAP-HTRF assay (IKBKAP protein in lysates of FD patient-derived fibroblasts)
Format: cell-based, human
Conditions: 48 hours incubation, 7-point concentration curve
Description: The assay is used for the quantitative determination of Elongator complex protein 1 (ELP1, also referred to as IKBKAP) concentration in cell lysates using the HTRF® (Homogeneous Time-Resolved Fluorescence) technology. IKBKAP is detected in a sandwich HTRF assay by use of an anti-IKAP antibody labeled with a donor and an anti-IKAP antibody labeled with an acceptor.
Cells were thawed and incubated in DMEM-10% FBS for 72 hours. Cells were trypsinized, counted, and re-suspended to a concentration of 50,000 cells/mL in DMEM-10% FBS. A 199 μL aliquot of the cell suspensions were plated at 10,000 cells per well in a 96 well microtiter plate and incubated for 3 to 5 hours. […] Test compounds were serially diluted 3.16-fold in 100% DMSO to generate a 7-point concentration curve. A 1 μL aliquot of 200× compound solution was transferred to cell-containing wells, and cells were incubated for 48 hours in a cell culture incubator (37° C., 5% CO2, 100% relative humidity). Triplicate samples were set up for each compound concentration. After 48 hours, the supernatant was removed from the cells and 50 μL of the 1×LB4 lysis buffer, containing protease inhibitors, was added to the cells and incubated with shaking at room temperature for 1 hour. A 36 μL aliquot of this lysate was subsequently transferred to the 384-well plate containing 4 μL of the antibody solution (1:50 dilution of anti IKAP d2 and anti-IKAP K(9+8) in detection buffer). The 384-well plate was then centrifuged for 1 minute to bring the solutions to the bottom of the plate and incubated overnight at 4° C. Fluorescence for each well of the plate at 665 nm and 620 nm was measured was on the EnVision plate reader (Perkin Elmer). The ΔF for each sample is calculated by:
[formula] wherein Signal is the normalized fluorescence for each sample well and Blank is the average normalized average fluorescence for the Blank control wells.
The maximum fold increase (MFI) in IKBKAP protein abundance for compounds of Formula (I) or a form thereof relative to the vehicle control are provided in Table 1. MFI was calculated by dividing the ΔF value for each sample well by the sample ΔF for the vehicle control wells.
The EC2x for IKBKAP protein expression obtained from the 7-point concentration curve generated for each test compound according to the protocol in Biological Example 1 are also provided in Table 1. The term “EC2x for IKBKAP protein expression” is defined as the concentration of test compound that is effective in producing two times the amount of IKBKAP protein in a FD patient cell compared to the amount produced from the DMSO vehicle control.

| Compound | EC2x for IKBKAP protein expression (concentration producing two times the amount of IKBKAP protein vs DMSO vehicle control) | MFI (maximum fold increase in IKBKAP protein abundance relative to the vehicle control) |
| --- | --- | --- |
| CSC[C@H](N)Cc1sc2c(NCc3ccco3)cc(Cl)nc2c1Cl [Compound 114, 2-[(2R)-2-amino-3-(methylsulfanyl)propyl]-3,5-dichloro-N-[(furan-2-yl)methyl]thieno[3,2-b]pyridin-7-amine] | ***** (≤0.005 μM is indicated by five stars (*****)) | ***** (>4.9 is indicated by five stars (*****)) |
| CSC[C@H](N)Cc1sc2c(NCc3ccco3)cc(Cl)nc2c1Br [Compound 118, 2-[(2R)-2-amino-3-(methylsulfanyl)propyl]-3-bromo-5-chloro-N-[(furan-2-yl)methyl]thieno[3,2-b]pyridin-7-amine] | ***** (≤0.005 μM is indicated by five stars (*****)) | ***** (>4.9 is indicated by five stars (*****)) |
| C[C@H](N)C(O)c1sc2c(NCc3nccs3)cc(Cl)nc2c1Br (stereo partly drawn) [Compound 159, (2S)-2-amino-1-(3-bromo-5-chloro-7-{[(1,3-thiazol-2-yl)methyl]amino}thieno[3,2-b]pyridin-2-yl)propan-1-ol] | *** (between >0.02 μM and ≤0.5 μM is indicated by three stars (***)) | ** (between >1.9 and ≤2.9 is indicated by two stars (**)) |
| Cc1c([C@H](C)N)sc2c(NCc3cccs3)cc(Cl)nc12 [Compound 55, 2-[(1S)-1-aminoethyl]-5-chloro-3-methyl-N-[(thiophen-2-yl)methyl]thieno[3,2-b]pyridin-7-amine] | **** (between >0.005 μM and ≤0.02 μM is indicated by four stars (****)) | **** (between >3.9 and ≤4.9 is indicated by four stars (****)) |
| C[C@H](N)Cc1sc2c(NCc3ccco3)cc(C#N)nc2c1Br [Compound 49, 2-[(2S)-2-aminopropyl]-3-bromo-7-{[(furan-2-yl)methyl]amino}thieno[3,2-b]pyridine-5-carbonitrile] | ***** (≤0.005 μM is indicated by five stars (*****)) | ***** (>4.9 is indicated by five stars (*****)) |
| N[C@@H](CO)Cc1cc2nc(Cl)cc(NCc3ccco3)c2s1 [Compound 17, (2R)-2-amino-3-(5-chloro-7-{[(furan-2-yl)methyl]amino}thieno[3,2-b]pyridin-2-yl)propan-1-ol] | ***** (≤0.005 μM is indicated by five stars (*****)) | **** (between >3.9 and ≤4.9 is indicated by four stars (****)) |
| Cc1c(C[C@H](C)N)sc2c(NCc3ccncc3F)cc(Cl)nc12 [Compound 35, 2-[(2S)-2-aminopropyl]-5-chloro-N-[(3-fluoropyridin-4-yl)methyl]-3-methylthieno[3,2-b]pyridin-7-amine] | ***** (≤0.005 μM is indicated by five stars (*****)) | ***** (>4.9 is indicated by five stars (*****)) |
| 2-[(2S)-2-amino-4-methylpentyl]-5-chloro-3-cyclopropyl-N-[(1,3-thiazol-2-yl)methyl]thieno[3,2-b]pyridin-7-amine [Compound 80] | *** (between >0.02 μM and ≤0.5 μM is indicated by three stars (***)) | *** (between >2.9 and ≤3.9 is indicated by three stars (***)) |
| 2-[(2S)-2-aminobutyl]-5-chloro-3-cyclopropyl-N-[(thiophen-2-yl)methyl]thieno[3,2-b]pyridin-7-amine [Compound 75] | *** (between >0.02 μM and ≤0.5 μM is indicated by three stars (***)) | ***** (>4.9 is indicated by five stars (*****)) |
| Cc1c(C[C@H](C)N)sc2c(NCc3cccs3)cc(Cl)nc12 [Compound 28, 2-[(2S)-2-aminopropyl]-5-chloro-3-methyl-N-[(thiophen-2-yl)methyl]thieno[3,2-b]pyridin-7-amine] | ***** (≤0.005 μM is indicated by five stars (*****)) | ***** (>4.9 is indicated by five stars (*****)) |
| N[C@H](CF)Cc1sc2c(NCc3cccs3)cc(Cl)nc2c1Br [Compound 63, 2-[(2S)-2-amino-3-fluoropropyl]-3-bromo-5-chloro-N-[(thiophen-2-yl)methyl]thieno[3,2-b]pyridin-7-amine] | *** (between >0.02 μM and ≤0.5 μM is indicated by three stars (***)) | ** (between >1.9 and ≤2.9 is indicated by two stars (**)) |
| C[C@H](N)C(F)(F)c1sc2c(NCc3cccs3)cc(Cl)nc2c1Cl [Compound 132, 2-[(2S)-2-amino-1,1-difluoropropyl]-3,5-dichloro-N-[(thiophen-2-yl)methyl]thieno[3,2-b]pyridin-7-amine] | **** (between >0.005 μM and ≤0.02 μM is indicated by four stars (****)) | ***** (>4.9 is indicated by five stars (*****)) |
| N[C@H](Cc1sc2c(NCc3ccco3)cc(Cl)nc2c1Cl)C(=O)Nc1ccccc1 [Compound 122, 3-(3,5-dichloro-7-{[(furan-2-yl)methyl]amino}thieno[3,2-b]pyridin-2-yl)-N-phenyl-D-alaninamide] | **** (between >0.005 μM and ≤0.02 μM is indicated by four stars (****)) | ***** (>4.9 is indicated by five stars (*****)) |
| Cc1cc(NCc2nccs2)c2sc(C[C@H](C)N)c(Cl)c2n1 [Compound 60, 2-[(2S)-2-aminopropyl]-3-chloro-5-methyl-N-[(1,3-thiazol-2-yl)methyl]thieno[3,2-b]pyridin-7-amine] | **** (between >0.005 μM and ≤0.02 μM is indicated by four stars (****)) | ***** (>4.9 is indicated by five stars (*****)) |
| CC[C@H](N)Cc1sc2c(NCc3nccs3)cc(Cl)nc2c1C [Compound 85, 2-[(2S)-2-aminobutyl]-5-chloro-3-methyl-N-[(1,3-thiazol-2-yl)methyl]thieno[3,2-b]pyridin-7-amine] | ***** (≤0.005 μM is indicated by five stars (*****)) | ***** (>4.9 is indicated by five stars (*****)) |
| N#CC[C@H](N)Cc1sc2c(NCc3ccco3)cc(Cl)nc2c1Br [Compound 103, (3S)-3-amino-4-(3-bromo-5-chloro-7-{[(furan-2-yl)methyl]amino}thieno[3,2-b]pyridin-2-yl)butanenitrile] | **** (between >0.005 μM and ≤0.02 μM is indicated by four stars (****)) | **** (between >3.9 and ≤4.9 is indicated by four stars (****)) |
| Cc1c(C[C@@H](N)C(=O)O)sc2c(NCc3ccco3)cc(Cl)nc12 [Compound 115, 3-(5-chloro-7-{[(furan-2-yl)methyl]amino}-3-methylthieno[3,2-b]pyridin-2-yl)-D-alanine] | ***** (≤0.005 μM is indicated by five stars (*****)) | ***** (>4.9 is indicated by five stars (*****)) |
| C[C@H](N)Cc1sc2c(NCc3nccs3)cc(Cl)nc2c1C1CC1 [Compound 96, 2-[(2S)-2-aminopropyl]-5-chloro-3-cyclopropyl-N-[(1,3-thiazol-2-yl)methyl]thieno[3,2-b]pyridin-7-amine] | **** (between >0.005 μM and ≤0.02 μM is indicated by four stars (****)) | ***** (>4.9 is indicated by five stars (*****)) |
